# Tests used:
# [1] = biological target: T1, Type-2 angiotensin II receptor (Homo sapiens, UniProt P50052); format: cell-based; details: cho-k1; further: in other assays of this panel Not Active means under 50% inhibition at 10 µM
# T1 sequence (P50052 whole entry): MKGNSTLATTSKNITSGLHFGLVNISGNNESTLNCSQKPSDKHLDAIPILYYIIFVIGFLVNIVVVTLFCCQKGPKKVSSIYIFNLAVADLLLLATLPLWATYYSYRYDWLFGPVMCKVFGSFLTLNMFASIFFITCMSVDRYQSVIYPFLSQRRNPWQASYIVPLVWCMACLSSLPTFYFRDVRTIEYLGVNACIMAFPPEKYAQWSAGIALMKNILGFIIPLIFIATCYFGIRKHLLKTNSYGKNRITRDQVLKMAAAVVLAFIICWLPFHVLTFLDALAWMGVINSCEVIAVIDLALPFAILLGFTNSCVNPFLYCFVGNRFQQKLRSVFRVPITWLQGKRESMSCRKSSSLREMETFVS
# [2] = DRUGMATRIX: Tumor Necrosis Factor (TNF), Non-Selective radioligand binding (ligand: [125I] TNF-alpha); format: cell membranes, Membrane; details: u-937; Not Active = under 50% inhibition at 10 µM
# Vasopressin V1a receptor = Vasopressin V1a receptor (Homo sapiens, UniProt P37288); format: cell membranes, Membrane; details: hek293; further: in other assays of this panel Not Active means under 50% inhibition at 10 µM
# Sequence of Vasopressin V1a receptor (P37288 whole entry): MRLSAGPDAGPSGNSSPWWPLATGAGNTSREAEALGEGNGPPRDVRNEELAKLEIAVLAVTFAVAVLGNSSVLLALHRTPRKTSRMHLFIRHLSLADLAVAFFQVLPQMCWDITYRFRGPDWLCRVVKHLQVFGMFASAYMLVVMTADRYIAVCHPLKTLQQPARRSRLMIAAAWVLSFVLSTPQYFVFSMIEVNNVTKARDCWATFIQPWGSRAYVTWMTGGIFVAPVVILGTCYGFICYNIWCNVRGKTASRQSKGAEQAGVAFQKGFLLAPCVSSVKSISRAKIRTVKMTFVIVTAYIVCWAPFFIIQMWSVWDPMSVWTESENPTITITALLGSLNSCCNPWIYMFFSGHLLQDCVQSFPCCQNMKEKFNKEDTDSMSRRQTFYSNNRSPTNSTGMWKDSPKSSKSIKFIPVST
# D(1A) dopamine receptor = D(1A) dopamine receptor (Homo sapiens, UniProt P21728); experiment: DRUGMATRIX: Dopamine D1 radioligand binding (ligand: [3H] SCH-23390); format: cell membranes, CHO, Membrane; details: cho; Not Active = under 50% inhibition at 10 µM
# Sequence of D(1A) dopamine receptor (P21728 whole entry): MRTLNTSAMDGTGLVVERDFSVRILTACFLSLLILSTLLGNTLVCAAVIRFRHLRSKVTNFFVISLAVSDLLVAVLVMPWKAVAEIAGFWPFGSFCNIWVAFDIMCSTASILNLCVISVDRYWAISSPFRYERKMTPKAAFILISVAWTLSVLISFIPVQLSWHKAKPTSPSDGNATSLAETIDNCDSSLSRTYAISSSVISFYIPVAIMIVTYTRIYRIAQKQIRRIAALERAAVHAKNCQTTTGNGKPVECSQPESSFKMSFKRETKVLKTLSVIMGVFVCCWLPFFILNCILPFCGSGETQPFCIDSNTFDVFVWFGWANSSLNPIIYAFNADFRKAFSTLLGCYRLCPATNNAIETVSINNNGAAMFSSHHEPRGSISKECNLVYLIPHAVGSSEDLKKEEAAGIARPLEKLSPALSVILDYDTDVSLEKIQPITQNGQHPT
# [3] = biological target: T2, Neuropeptide Y receptor type 1 (Homo sapiens, UniProt P25929); format: cell membranes, Membrane; details: sk-n-mc; further: in other assays of this panel Not Active means under 50% inhibition at 10 µM
# T2 sequence (P25929 whole entry): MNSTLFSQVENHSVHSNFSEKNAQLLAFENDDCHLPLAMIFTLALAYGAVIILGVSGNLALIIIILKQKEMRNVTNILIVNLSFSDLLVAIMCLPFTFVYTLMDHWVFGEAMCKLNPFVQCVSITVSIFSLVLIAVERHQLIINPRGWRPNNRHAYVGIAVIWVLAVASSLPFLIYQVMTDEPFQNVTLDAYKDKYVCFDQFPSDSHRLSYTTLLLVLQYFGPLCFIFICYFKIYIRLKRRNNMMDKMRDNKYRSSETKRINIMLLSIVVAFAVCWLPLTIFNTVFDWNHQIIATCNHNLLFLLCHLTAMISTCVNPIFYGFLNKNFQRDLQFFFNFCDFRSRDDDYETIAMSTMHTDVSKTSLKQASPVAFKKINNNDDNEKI
# [4] = DRUGMATRIX: Purinergic P2X radioligand binding (ligand: [3H] alpha, beta-Methylene-ATP); format: cell membranes, Oryctolagus cuniculus, New Zealand albino, Urinary bladder, Membrane; details: Not Active = under 50% inhibition at 10 µM
# Acetylcholinesterase = Acetylcholinesterase (Homo sapiens, UniProt P22303); experiment: DRUGMATRIX: Acetylcholinesterase enzyme inhibition (substrate: acetylthiocholine); format: cell-based, HEK293; details: Not Active = under 50% inhibition at 10 µM
# Sequence of Acetylcholinesterase (P22303 whole entry): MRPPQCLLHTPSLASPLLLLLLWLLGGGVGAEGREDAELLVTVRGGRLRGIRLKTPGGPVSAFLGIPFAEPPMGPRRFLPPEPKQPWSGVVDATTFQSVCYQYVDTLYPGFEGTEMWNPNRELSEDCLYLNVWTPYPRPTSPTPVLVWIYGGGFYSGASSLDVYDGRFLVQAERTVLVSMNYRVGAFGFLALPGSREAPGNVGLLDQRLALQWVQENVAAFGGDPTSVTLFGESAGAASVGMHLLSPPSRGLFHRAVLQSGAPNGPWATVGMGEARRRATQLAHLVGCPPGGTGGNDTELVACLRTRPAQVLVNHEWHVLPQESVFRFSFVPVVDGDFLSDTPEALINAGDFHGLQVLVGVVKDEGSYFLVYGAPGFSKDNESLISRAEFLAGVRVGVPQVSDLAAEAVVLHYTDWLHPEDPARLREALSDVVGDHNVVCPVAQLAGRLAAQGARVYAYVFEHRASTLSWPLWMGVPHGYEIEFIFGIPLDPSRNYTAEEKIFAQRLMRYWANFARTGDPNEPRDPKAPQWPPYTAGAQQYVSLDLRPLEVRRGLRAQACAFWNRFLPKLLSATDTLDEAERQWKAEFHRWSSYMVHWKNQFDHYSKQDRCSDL
Molecule,IC50 [1],IC50 [2],Ki [2],IC50 (Vasopressin V1a receptor),IC50 (D(1A) dopamine receptor),IC50 [3],IC50 [4],Ki [4],IC50 (Acetylcholinesterase; hek293),IC50 (Acetylcholinesterase; read-out: IC50) [µM],Ki [1],Ki (Vasopressin V1a receptor),Ki (D(1A) dopamine receptor),Ki [3],Ki (Acetylcholinesterase; hek293)
COc1nc(C)nc(Cl)c1NC1=NCCN1 [MOXONIDINE],Not Active,Not Active,Not Active,Not Active,Not Active,Not Active,Not Active,Not Active,Not Active,,,,,,
N[C@@H](Cc1ccc(O)c(O)c1)C(=O)O [LEVODOPA],Not Active,Not Active,Not Active,Not Active,Not Active,Not Active,Not Active,Not Active,Not Active,,,,,,
OCCN(CCO)c1nc(N2CCCCC2)c2nc(N(CCO)CCO)nc(N3CCCCC3)c2n1 [DIPYRIDAMOLE],Not Active,Not Active,Not Active,Not Active,Not Active,Not Active,Not Active,Not Active,Not Active,,,,,,
Cn1ccnc1S [METHIMAZOLE],Not Active,Not Active,Not Active,Not Active,Not Active,Not Active,Not Active,Not Active,Not Active,,,,,,
CC(=O)[C@@]1(O)CC[C@H]2[C@@H]3C[C@H](C)C4=CC(=O)CC[C@]4(C)[C@H]3CC[C@@]21C,Not Active,Not Active,Not Active,Not Active,Not Active,Not Active,Not Active,Not Active,Not Active,,,,,,
C=CCC1(C(C)CCC)C(=O)NC(=O)NC1=O (stereo not drawn) [SECOBARBITAL],Not Active,Not Active,Not Active,Not Active,Not Active,Not Active,Not Active,Not Active,Not Active,,,,,,
C[C@@H]1CN(c2c(F)c(N)c3c(=O)c(C(=O)O)cn(C4CC4)c3c2F)C[C@H](C)N1 [SPARFLOXACIN],Not Active,Not Active,Not Active,Not Active,Not Active,Not Active,Not Active,Not Active,Not Active,,,,,,
O=c1ncn2nc(Sc3ccc(F)cc3F)ccc2c1-c1c(Cl)cccc1Cl [NEFLAMAPIMOD],Not Active,Not Active,Not Active,Not Active,Not Active,Not Active,Not Active,Not Active,Not Active,,,,,,
Nc1c2c(nc3ccccc13)CCCC2 [TACRINE],Not Active,Not Active,Not Active,Not Active,Not Active,Not Active,Not Active,Not Active,,,,,,,
CO[C@H]1/C=C/O[C@@]2(C)Oc3c(C)c(O)c4c(O)c(c(/C=N/N5CCN(C)CC5)c(O)c4c3C2=O)NC(=O)/C(C)=C\C=C\[C@H](C)[C@H](O)[C@@H](C)[C@@H](O)[C@@H](C)[C@H](OC(C)=O)[C@@H]1C [RIFAMPIN],Not Active,Not Active,Not Active,Not Active,Not Active,Not Active,Not Active,Not Active,Not Active,,,,,,
CCCCc1oc2ccccc2c1C(=O)c1cc(I)c(OCCN(CC)CC)c(I)c1 [AMIODARONE],Not Active,,,Not Active,,Not Active,,,Not Active,,,,,,
CCOC(=O)N1CCC(=C2c3ccc(Cl)cc3CCc3cccnc32)CC1 [LORATADINE],Not Active,Not Active,Not Active,Not Active,Not Active,Not Active,Not Active,Not Active,Not Active,,,,,,
N[C@@H](Cc1ccc(N(CCCl)CCCl)cc1)C(=O)O,Not Active,Not Active,Not Active,Not Active,Not Active,Not Active,Not Active,Not Active,Not Active,,,,,,
Cc1noc(NS(=O)(=O)c2ccc(N)cc2)c1C [SULFISOXAZOLE],Not Active,Not Active,Not Active,Not Active,Not Active,Not Active,Not Active,Not Active,Not Active,,,,,,
N[C@@H](Cc1cc(I)c(Oc2ccc(O)c(I)c2)c(I)c1)C(=O)O [LIOTHYRONINE],Not Active,,,Not Active,Not Active,Not Active,,,Not Active,,,,,,
c1ccc([C@H]2CN3CCSC3=N2)cc1 [LEVAMISOLE],Not Active,Not Active,Not Active,Not Active,Not Active,Not Active,Not Active,Not Active,Not Active,,,,,,
CC1(C)O[C@@H]2C[C@H]3[C@@H]4CCC5=CC(=O)C=C[C@]5(C)[C@@]4(F)[C@@H](O)C[C@]3(C)[C@]2(C(=O)CO)O1 [TRIAMCINOLONE ACETONIDE],Not Active,Not Active,Not Active,Not Active,Not Active,Not Active,Not Active,Not Active,Not Active,,,,,,
N#CC(C#N)=Cc1ccc(O)c(O)c1 [TYRPHOSTIN 23],Not Active,Not Active,Not Active,Not Active,Not Active,Not Active,Not Active,Not Active,Not Active,,,,,,
Nc1nc2nc[nH]c2c(=S)[nH]1 [THIOGUANINE],Not Active,Not Active,Not Active,Not Active,Not Active,Not Active,Not Active,Not Active,Not Active,,,,,,
NS(=O)(=O)c1cc2c(cc1Cl)NC(C(Cl)Cl)NS2(=O)=O (stereo not drawn) [TRICHLORMETHIAZIDE],Not Active,Not Active,Not Active,Not Active,Not Active,Not Active,Not Active,Not Active,Not Active,,,,,,
CC(C)N1CCN(c2ccc(OCC3COC(Cn4cncn4)(c4ccc(Cl)cc4Cl)O3)cc2)CC1 (stereo not drawn) [TERCONAZOLE],Not Active,,,Not Active,,Not Active,Not Active,Not Active,,21.6,,,,,
CN1CCN(CCCN2c3ccccc3Sc3ccc(Cl)cc32)CC1 [PROCHLORPERAZINE],Not Active,,,Not Active,,Not Active,,,Not Active,,,,,,
CC(C)(C)NC(=O)[C@@H]1C[C@@H]2CCCC[C@@H]2CN1C[C@@H](O)[C@H](Cc1ccccc1)NC(=O)[C@H](CC(N)=O)NC(=O)c1ccc2ccccc2n1,Not Active,Not Active,Not Active,,Not Active,Not Active,Not Active,Not Active,Not Active,,,,,,
SODIUM NITROPRUSSIDE,Not Active,Not Active,Not Active,Not Active,Not Active,Not Active,Not Active,Not Active,Not Active,,Not Active,Not Active,Not Active,Not Active,Not Active
NC[C@H]1CC[C@H](C(=O)O)CC1 [TRANEXAMIC ACID],Not Active,Not Active,Not Active,Not Active,Not Active,Not Active,Not Active,Not Active,Not Active,,,,,,
CC/C(=C(\c1ccccc1)c1ccc(OCCN(C)C)cc1)c1ccccc1 [TAMOXIFEN],Not Active,,,Not Active,,Not Active,,,Not Active,,,,,,
N[C@@H]1[C@H]2CN(c3nc4c(cc3F)c(=O)c(C(=O)O)cn4-c3ccc(F)cc3F)C[C@@H]12 [TROVAFLOXACIN],Not Active,Not Active,Not Active,Not Active,Not Active,Not Active,Not Active,Not Active,Not Active,,,,,,
Cc1nc2n(c(=O)c1CCN1CCC(c3noc4cc(F)ccc34)CC1)CCCC2 [RISPERIDONE],Not Active,,,Not Active,,Not Active,,,Not Active,,,,,,
